From US20260297092A1, “PYRAZOLOPYRIMIDINE DERIVATIVES AS INHIBITORS OF NLRP3” (Takeda Pharmaceutical Company Limited, priority 2023, published 2026)
pIC50: −log10 of the molar value.

Columns and labels:
[1] = system: NLRP3 inflammasome (IL-1β production in THP-1 cells); experiment: IL-1β TR-FRET Assay (percentage of inhibition at 300 nM, 6 μM or 10 μM); format: cell-based, human; settings: Homo sapiens, LPS priming, ATP activation; for inhibition at 6 µM: THP-1, 6 μM, read-out: IL-1β inhibitory rate at 6 μM (%); for inhibition at 0.3 µM: THP-1, 300 nM, read-out: IL-1β inhibitory rate at 300 nM (%); for inhibition at 10 µM: THP-1, 10 μM, read-out: IL-1β inhibitory rate at 10 μM (%)
Outline: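 Percent inhibition of IL-1β used DMSO wells as 0% and 3 μM MCC-950 wells as full inhibition, with supernatant read by HTRF. Beforehand, IFN-γ-differentiated (25 ng/mL, 24 h), LPS-primed (50 ng/mL, 24 h) THP-1 cells received compound 30 min before inflammasome activation by 20 mM ATP for 2 h.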

[2] = system: TNF-α (NF-κB pathway, THP-1 cells); experiment: TNF-α Assay (IC50); format: cell-based, human; settings: Homo sapiens, 600 ng/mL LPS, 3 hours
Experimental: TNF-α Assay (Reported as IC50)
Monocytic THP-1 cells (ATCC: TIB-202) were maintained in accordance with the provider's instructions in RPMI media (Life Technologies, Cat #A10491-01); RPMI was supplemented with 10% heat inactivated fetal bovine serum (Hyclone Cat #SH30396.03). The cells were differentiated into macrophages by the addition of 25 ng/mL IFN-7 for 24 hours at 37° C./5% CO2. Media was exchanged with fresh media with no FBS. The cells were plated at 40,000 cells per well in 384-well flat-bottom cell culture plates (Costar 3764) containing compounds (added in 1:1000) in a 1:3.16 serial dilution series in DMSO and were incubated for 30 minutes at 37° C./5% CO2. The NF-κB pathway was activated with the addition of 600 ng/mL LPS and the cells were incubated for 3 hours at 37° C./5% CO2. At the end of the incubation period, supernatant ([…]) was removed, and TNF-alpha were monitored using an ELISA (Human TNF-α ELISA, R&D systems, Cat #DY210) according to the manufacturer's instructions. 100% inhibition is determined with positive control, TPCA-1.
The IC50 values in the TNF-α assay were calculated from a plot of percentage of inhibition versus the inhibitor concentration by a logistics curve fit according to: Y=[Bottom+(Top−Bottom)]/(1+10^[(Log IC50−X)·Hill Slope], where Y was the […] at the inhibitor concentration, X, “Bottom” was the lowest inhibition value, i.e., 0%, “Top” was the maximum inhibition value, i.e., 100%, and the “Hill Slope” described the slope of the sigmoidal curve between the “Bottom” and “Top” values. The curve fitting was conducted with internally developed software.

pIC50 [2]	Structure (SMILES)	inhibition at 6 µM [1]	inhibition at 0.3 µM [1]	inhibition at 10 µM [1]
< 4.52	Cc1nccc(-c2nc3nn(-c4c(C)cc(C5CC5)cc4C)cc3c(=O)[nH]2)n1 [Example 287, 2-(4-cyclopropyl-2,6-dimethylphenyl)-6-(2-methylpyrimidin-4-yl)-2,5-dihydro-4H-pyrazolo[3,4-d]pyrimidin-4-one]	99%	–	–
< 4.52	CCOc1nc2nn(-c3c(F)cc(C4CC4)cc3C(O)C(F)(F)F)cc2c(=O)[nH]1 (racemic) [Example 192, 2-[4-cyclopropyl-2-fluoro-6-(2,2,2-trifluoro-1-hydroxyethyl)phenyl]-6-ethoxy-2,5-dihydro-4H-pyrazolo[3,4-d]pyrimidin-4-one]	–	95%	–
< 4.52	C=Cc1cc(C)c(-n2cc3c(=O)[nH]c(OCC)nc3n2)c(F)c1 [Example 120, 2-(4-ethenyl-2-fluoro-6-methylphenyl)-6-ethoxy-2,5-dihydro-4H-pyrazolo[3,4-d]pyrimidin-4-one]	–	101%	–
< 4.52	CCc1cc(C2(F)CC2)cc(C)c1-n1cc2c(=O)[nH]c(OC)nc2n1 [Example 301, 2-[2-ethyl-4-(1-fluorocyclopropyl)-6-methylphenyl]-6-methoxy-2,5-dihydro-4H-pyrazolo[3,4-d]pyrimidin-4-one]	98%	–	–
< 4.52	Cc1cc(C2CC2)cc(C)c1-n1cc2c(=O)[nH]c(CC#N)nc2n1 [Example 317, [2-(4-cyclopropyl-2,6-dimethylphenyl)-4-oxo-4,5-dihydro-2H-pyrazolo[3,4-d]pyrimidin-6-yl]acetonitrile]	100%	–	–
< 4.52	COC1(c2nc3nn(-c4c(C)cc(C5CC5)cc4C)cc3c(=O)[nH]2)CCC1 [Example 277, 2-(4-cyclopropyl-2,6-dimethylphenyl)-6-(1-methoxycyclobutyl)-2,5-dihydro-4H-pyrazolo[3,4-d]pyrimidin-4-one]	96%	–	–
< 4.52	CCOc1nc2nn(-c3ccc(C4CC4)cc3F)c(C)c2c(=O)[nH]1 [Example 111, 2-(4-cyclopropyl-2-fluorophenyl)-6-ethoxy-3-methyl-2,5-dihydro-4H-pyrazolo[3,4-d]pyrimidin-4-one]	–	95%	–
< 4.52	CCOc1nc2nn(-c3c(C)cc(CC(F)(F)F)cc3F)cc2c(=O)[nH]1 [Example 156, 6-ethoxy-2-[2-fluoro-6-methyl-4-(2,2,2-trifluoroethyl)phenyl]-2,5-dihydro-4H-pyrazolo[3,4-d]pyrimidin-4-one]	–	–	97%
< 4.52	CCOc1nc2nn(-c3c(OCC)cc(C(F)(F)F)cc3C(F)F)cc2c(=O)[nH]1 [Example 95, 2-[2-(difluoromethyl)-6-ethoxy-4-(trifluoromethyl)phenyl]-6-ethoxy-2,5-dihydro-4H-pyrazolo[3,4-d]pyrimidin-4-one]	–	72%	–
< 4.52	Cc1cc(C)c(-n2cc3c(=O)[nH]c(-c4ccc(F)cn4)nc3n2)c(O)c1 [Example 13, 6-(5-fluoropyridin-2-yl)-2-(2-hydroxy-4,6-dimethylphenyl)-2,5-dihydro-4H-pyrazolo[3,4-d]pyrimidin-4-one]	–	99%	–
< 4.52	Cc1cc(C2CC2)cc(C)c1-n1cc2c(=O)[nH]c(C3(F)CC3)nc2n1 [Example 190, 2-(4-cyclopropyl-2,6-dimethylphenyl)-6-(1-fluorocyclopropyl)-2,5-dihydro-4H-pyrazolo[3,4-d]pyrimidin-4-one]	–	97%	–
< 4.52	CCOc1nc2nn(-c3c(O)cc(C)cc3C3CC3)cc2c(=O)[nH]1 [Example 11, 2-(2-cyclopropyl-6-hydroxy-4-methylphenyl)-6-ethoxy-2,5-dihydro-4H-pyrazolo[3,4-d]pyrimidin-4-one]	–	99%	–
< 4.52	CCOc1nc2nn(-c3c(O)cc(C)cc3OC(F)F)cc2c(=O)[nH]1 [Example 116, 2-[2-(difluoromethoxy)-6-hydroxy-4-methylphenyl]-6-ethoxy-2,5-dihydro-4H-pyrazolo[3,4-d]pyrimidin-4-one]	–	96%	–
< 4.52	CCOc1nc2nn(-c3c(C)cc(OC(F)F)cc3C)cc2c(=O)[nH]1 [Example 147, 2-[4-(difluoromethoxy)-2,6-dimethylphenyl]-6-ethoxy-2,5-dihydro-4H-pyrazolo[3,4-d]pyrimidin-4-one]	–	103%	–
< 4.52	COc1nc2nn(-c3c(C)cc(OC(F)F)cc3C(F)F)cc2c(=O)[nH]1 [Example 284, 2-[4-(difluoromethoxy)-2-(difluoromethyl)-6-methylphenyl]-6-methoxy-2,5-dihydro-4H-pyrazolo[3,4-d]pyrimidin-4-one]	103%	–	–
< 4.52	Cc1cc(C)c(-n2cc3c(=O)[nH]c(-c4cccnn4)nc3n2)c(O)c1 [Example 30, 2-(2-hydroxy-4,6-dimethylphenyl)-6-(pyridazin-3-yl)-2,5-dihydro-4H-pyrazolo[3,4-d]pyrimidin-4-one]	–	100%	–
< 4.52	CCOc1nc2nn(-c3ccc(Cl)cc3O)c(C)c2c(=O)[nH]1 [Example 60, 2-(4-chloro-2-hydroxyphenyl)-6-ethoxy-3-methyl-2,5-dihydro-4H-pyrazolo[3,4-d]pyrimidin-4-one]	–	100%	–
< 4.52	O=c1[nH]c(C2CC2)nc2nn(-c3c(F)cc(C4CC4)cc3C(F)F)cc12 [Example 173, 6-cyclopropyl-2-[4-cyclopropyl-2-(difluoromethyl)-6-fluorophenyl]-2,5-dihydro-4H-pyrazolo[3,4-d]pyrimidin-4-one]	–	108%	–
< 4.52	CCOc1nc2nn(-c3ccc(C)cc3OCC(F)F)cc2c(=O)[nH]1 [Example 98, 2-[2-(2,2-difluoroethoxy)-4-methylphenyl]-6-ethoxy-2,5-dihydro-4H-pyrazolo[3,4-d]pyrimidin-4-one]	–	44%	–
< 4.52	COCc1nc2nn(-c3c(F)cc(C4CC4)cc3CC(F)F)cc2c(=O)[nH]1 [Example 322, 2-[4-cyclopropyl-2-(2,2-difluoroethyl)-6-fluorophenyl]-6-(methoxymethyl)-2,5-dihydro-4H-pyrazolo[3,4-d]pyrimidin-4-one]	104%	–	–
< 4.52	CCOc1nc2nn(-c3c(C)cc(C)cc3O)c(C)c2c(=O)[nH]1 [Example 37, 6-ethoxy-2-(2-hydroxy-4,6-dimethylphenyl)-3-methyl-2,5-dihydro-4H-pyrazolo[3,4-d]pyrimidin-4-one]	–	101%	–
< 4.52	COc1nc2nn(-c3c(C)cc(C4CC4)cc3OC(F)F)cc2c(=O)[nH]1 [Example 252, 2-[4-cyclopropyl-2-(difluoromethoxy)-6-methylphenyl]-6-methoxy-2,5-dihydro-4H-pyrazolo [3,4-d]pyrimidin-4-one]	103%	–	–
< 4.52	Cc1ccc(C)c(-n2cc3c(=O)[nH]c(-c4ccncn4)nc3n2)c1O [Example 41, 2-(2-hydroxy-3,6-dimethylphenyl)-6-(pyrimidin-4-yl)-2,5-dihydro-4H-pyrazolo[3,4-d]pyrimidin-4-one]	–	99%	–
< 4.52	CCOc1nc2nn(-c3c(C)cc(-n4cccn4)cc3C)cc2c(=O)[nH]1 [Example 139, 2-[2,6-dimethyl-4-(1H-pyrazol-1-yl)phenyl]-6-ethoxy-2,5-dihydro-4H-pyrazolo[3,4-d]pyrimidin-4-one]	–	–	95%
< 4.52	CCOc1nc2nn(-c3c(F)cc(C)cc3C3CC3(F)F)cc2c(=O)[nH]1 (stereo not drawn) [Example 79, 2-[2-(2,2-difluorocyclopropyl)-6-fluoro-4-methylphenyl]-6-ethoxy-2,5-dihydro-4H-pyrazolo[3,4-d]pyrimidin-4-one]	–	95%	–
< 4.52	CCOc1nc2nn(-c3ncc(C4CC4)cc3C)cc2c(=O)[nH]1 [Example 154, 2-(5-cyclopropyl-3-methylpyridin-2-yl)-6-ethoxy-2,5-dihydro-4H-pyrazolo[3,4-d]pyrimidin-4-one]	–	93%	–

Structure (SMILES)	pIC50 [2]	inhibition at 6 µM [1]	inhibition at 0.3 µM [1]	inhibition at 10 µM [1]
Cc1cc(C)c(-n2cc3c(=O)[nH]c(OCCCCN(C)C)nc3n2)c(O)c1 [Example 129, 6-[4-(dimethylamino)butoxy]-2-(2-hydroxy-4,6-dimethylphenyl)-2,5-dihydro-4H-pyrazolo[3,4-d]pyrimidin-4-one]	< 4.52	–	98%	–
